Article PMC9000499, “New Triazolyl N^N Bidentate Rh(III), Ir(III), Ru(II) and Os(II) Complexes: Synthesis and Characterization, Probing Possible Relations between Cytotoxicity with Transfer Hydrogenation Efficacy and Interaction with Model Biomolecules” (Molecules, 2022)
Several values for one entry are separate records, joined by “and”; a condition that tells them apart may be missing. Equal values may be shown once. Read-outs that look alike come from different tables or passages of the source.

Tests used:
[1] = system: cervical cancer cells (Hela); test: MTS in vitro cytotoxicity assay, Hela; assay type: cell-based; conditions: 96 h exposure, mean ± SD n = 6
Text: (§1) The absorbance is directly proportional to cell viability.

[2] = system: normal kidney cells (BHK21); test: MTS in vitro cytotoxicity assay, BHK21; assay type: cell-based; conditions: mean ± SD n = 6
Text: as §1

[3] = MTS in vitro cytotoxicity assay, HEK293; assay type: cell-based; conditions: MTS assay, 96 h exposure, mean ± SD n = 6
Text: as §1

Lymphoma cells (MT4) = test: MTS in vitro cytotoxicity assay, MT4; assay type: cell-based; conditions: 96 h exposure, mean ± SD n = 6
Text: as §1

lung cancer cells (A549) = test: MTS in vitro cytotoxicity assay, A549; assay type: cell-based; conditions: mean ± SD n = 6
Text: as §1

[4] = not given; remark: listed apart in the source
[5] = system: cancer cells (HeLa, HEK293, A549, MT4); conditions: summary over the selected cancer cell lines, MTS assay; for EC50: read-out: EC50 against the cancer cells
Protocol: (§2) An MTS (3-(4,5-dimethylthiazol-2-yl)-5-(3-carboxymethoxy-phenyl)-2-(4-sulfophenyl)-2H-tetrazolium) in vitro cytotoxicity assay was conducted to determine change in cell viability using a colour change. The MTS compound (yellow) is metabolised by viable cells to form a dark purple coloured compound, visible through UV-Vis spectroscopy at 490 nm. The absorbance is directly proportional to cell viability. Samples were tested across three plates in duplicate (n = 6), and the average value was reported.
(§3) HeLa (cervical cancer cells), Hek293 (kidney cancer cells), BHK21 (normal kidney cells), MT4 (lymphoma cells) and A549 (lung cancer cells) were grown using standard tissue culture techniques. The cells (1 × 10^5 cells/mL) were incubated in 96-well plates at 37 °C overnight, with the subsequent addition of the supplied compounds, at concentrations (100 µg/mL, 50.0 µg/mL, 25.0 µg/mL, 12.5 µg/mL, 6.25 µg/mL, 3.125 µg/mL and 0 µg/mL). The cells were left to incubate for four days, after which MTS (5 µL) was added to the cells. The absorbance values were measured at 490 nm after 1 h, 2 h and 4 h incubation periods, averaged, and the viability curves were drawn up.

[6] = qualitative, aqueous model system / PBS
[7] = system: all the tested cell lines (Hela, HEK293, BHK21, MT4, A549); conditions: summary over all tested cell lines, MTS assay
Protocol: as §2, §3

[8] = system: kidney cancer cells (HEK293); test: MTS in vitro cytotoxicity assay, HEK293; assay type: cell-based; conditions: EC50 against BHK21 divided by EC50 against HEK293
Text: as §1

[9] = base: NaHCO3 1.0 equiv., PBS pH 7.4, 310 K, 24 h
[10] = base: None, 2.0 equiv. halide abstractor AgBF4 added, PBS pH 7.4, 310 K, 24 h
[11] = base: None, 1 mol% catalyst, 2.0 equiv. sodium formate, PBS pH 7.4, 310 K, 24 h
[12] = percentage of lactate formed, base: NaHCO3 1.0 equiv., PBS pH 7.4, 310 K, 24 h
[13] = percentage of lactate formed, base: None, 2.0 equiv. AgBF4 added, PBS pH 7.4, 310 K, 24 h
[14] = percentage of lactate formed, base: None, PBS pH 7.4, 310 K, 24 h
[15] = Mesocricetus auratus, BHK-21, 96 h exposure
[16] = Homo sapiens, A549, 96 h exposure

| Structure (SMILES) | EC50 [1] | EC50 ([2]; 96 h exposure) | EC50 [3] | EC50 (Lymphoma cells (MT4)) | EC50 (lung cancer cells (A549); 96 h exposure) | EC50 BHK21 ([2]; 96 h exposure) | further results |
| --- | --- | --- | --- | --- | --- | --- | --- |
| CC(=O)OC[C@H]1O[C@@H]([S-])[C@H](OC(C)=O)[C@@H](OC(C)=O)[C@@H]1OC(C)=O.CCP(CC)CC.[Au+] [Auranofin, reference compound] | < 2 µM | < 0.1 µM | < 0.1 µM | < 2 µM | 12 ± 2 µM | – | – |
| Cc1ccc(C(C)C)cc1.F[B-](F)(F)F.[Cl-].[Ru+2].c1ccc(Cn2cc(-c3ccccn3)nn2)cc1 [Complex C1, [Chlorido(2-(1-benzyl-(3-κN)-1,2,3-triazol-4-yl)-(2′-κN)-pyridine)(η^6-p-cymene)ruthenium(II)] tetrafluoroborate] | > 500 µM | 113 ± 17 µM | > 500 µM | 37 ± 5 µM | > 500 µM | low cytotoxicities | Selectivity (%) (pH 7.4): 100% and >99%; Time with no detectable changes in the 1H NMR spectra (stability) ([4]; 10% DMSO-d6 in phosphate-buffered D2O (pH 7.4), 37 °C): over 72 h |
| Cc1ccc(C(C)C)cc1.[Cl-].[Ru+2].c1ccc(Cn2cc(-c3ccccn3)nn2)cc1.c1ccc([B-](c2ccccc2)(c2ccccc2)c2ccccc2)cc1 [Complex C2, [Chlorido(2-(1-benzyl-(3-κN)-1,2,3-triazol-4-yl)-(2′-κN)-pyridine)(η^6-p-cymene)ruthenium(II)] tetraphenylborate] | 15 ± 1.7 µM | 151 ± 0.6 µM | 11 ± 1.5 µM | 9 ± 1 µM | 14 ± 4 µM | low cytotoxicities | EC50 [5]: 9 to 16 µM and ≤ 16 µM; Solubility in aqueous model system [6]: poorly soluble |
| Cc1ccc(C(C)C)cc1.F[B-](F)(F)F.[Cl-].[Os+2].c1ccc(Cn2cc(-c3ccccn3)nn2)cc1 [Complex C3, [Chlorido(2-(1-benzyl-(3-κN)-1,2,3-triazol-4-yl)-(2′-κN)-pyridine)(η^6-p-cymene)osmium(II)] tetrafluoroborate] | > 500 µM | > 500 µM | > 500 µM | 133 ± 12 µM | > 500 µM | – | Conversion (%) [9]: 0.1 ± 0.03%; Conversion (%) [10]: 3 ± 1%; Conversion (%) [11]: 1 ± 0.3%; Selectivity (%) [12]: 100%; Selectivity (%) [13]: >99%; Selectivity (%) [14]: 100% |
| Cc1c(C)c(C)[c-](C)c1C.F[B-](F)(F)F.[Cl-].[Rh+3].c1ccc(Cn2cc(-c3ccccn3)nn2)cc1 [Complex C4, [Chlorido(2-(1-benzyl-(3-κN)-1,2,3-triazol-4-yl)-(2′-κN)-pyridine)(η^6-pentamethylcypentadiene)rhodium(III)] tetrafluoroborate] | ≥ 300 µM | > 500 µM | > 500 µM | 60 ± 8 µM | > 500 µM | – | – |
| Cc1c(C)c(C)[c-](C)c1C.F[B-](F)(F)F.[Cl-].[Ir+3].c1ccc(Cn2cc(-c3ccccn3)nn2)cc1 [Complex C5, [Chlorido(2-(1-benzyl-(3-κN)-1,2,3-triazol-4-yl)-(2′-κN)-pyridine)(η^6-pentamethylcypentadiene)iridium(III)] tetrafluoroborate] | > 500 µM | 55 ± 1 µM | > 500 µM | 67 ± 6 µM | > 500 µM | low cytotoxicities | Conversion (%) [9]: 0.1 ± 0.02%; TON [9]: ≤0.1; Conversion (%) [10]: 20 ± 3%; TON [10]: 20; Conversion (%) [11]: 14 ± 2%; TON [11]: 14; Selectivity (%) [12]: 100%; Selectivity (%) [13]: >99%; Selectivity (%) [14]: 100%; Conversion of pyruvate to lactate (summary, base condition not specified): < 14%; Time with no detectable changes in the 1H NMR spectra (stability) ([4]; pH 7.4): over 72 h |
| Cc1ccc(C(C)C)cc1.F[B-](F)(F)F.[Cl-].[Ru+2].c1ccc(Cn2cc(-c3ccccn3)nn2)nc1 [Complex C6, [Chlorido(2-((4-(pyridine-2-yl)-(3-κN)-1,2,3-trizol-1-yl)methyl)-(2′-κN)-pyridine)(η^6-p-cymene)ruthenium(II)] tetrafluoroborate] | 388 ± 70.9 µM | – | > 500 µM | 158 ± 44.2 µM | – | N.R. | EC50 against the cancer cells [5]: completely inactive against most cancer cells; EC50 A549 (lung cancer cells (A549); 96 h exposure): N.R. |
| Cc1ccc(C(C)C)cc1.[Cl-].[Ru+2].c1ccc(Cn2cc(-c3ccccn3)nn2)nc1.c1ccc([B-](c2ccccc2)(c2ccccc2)c2ccccc2)cc1 [Complex C7, [Chlorido(2-((4-(pyridine-2-yl)-(3-κN)-1,2,3-trizol-1-yl)methyl)-(2′-κN)-pyridine)(η^6-p-cymene)ruthenium(II)] tetraphenylborate] | 26 ± 0.8 µM | 67 ± 7.3 µM | 17 ± 4.8 µM | 20 ± 4.8 µM | 53 ± 6 µM | – | Solubility in aqueous model system [6]: poorly soluble |
| Cc1ccc(C(C)C)cc1.F[B-](F)(F)F.[Cl-].[Os+2].c1ccc(Cn2cc(-c3ccccn3)nn2)nc1 [Complex C8, [Chlorido(2-((4-(pyridine-2-yl)-(3-κN)-1,2,3-trizol-1-yl)methyl)-(2′-κN)-pyridine)(η^6-p-cymene)osmium(II)] tetrafluoroborate] | – | > 500 µM | > 500 µM | – | > 500 µM | – | EC50 Hela [1]: N.R.; EC50 / activity against all the tested cell lines [7]: not active; EC50 MT4 (Lymphoma cells (MT4)): N.R. |
| Cc1ccc(C(C)C)cc1.F[B-](F)(F)F.[Cl-].[Os+2].c1ccc(Cn2cc(-c3ccccn3)nn2)nc1 [Complex C9, [Chlorido(2-((4-(pyridine-2-yl)-(3-κN)-1,2,3-trizol-1-yl)methyl)-(2′-κN)-pyridine)(η^6-p-cymene)osmium(II)] tetrafluoroborate] | – | – | > 400 µM | – | > 500 µM | N.R. | EC50 Hela [1]: N.R.; EC50 / activity against all the tested cell lines [7]: not active; EC50 MT4 (Lymphoma cells (MT4)): N.R. |
| Cc1c(C)c(C)[c-](C)c1C.F[B-](F)(F)F.[Cl-].[Rh+3].c1ccc(Cn2cc(-c3ccccn3)nn2)nc1 [Complex C10, [Chlorido(2-((4-(pyridine-2-yl)-(3-κN)-1,2,3-trizol-1-yl)methyl)-(2′-κN)-pyridine)(η^6-pentamethylcypentadiene)rhodium(III)] tetrafluoroborate] | – | – | > 500 µM | > 500 µM | – | N.R. | EC50 Hela [1]: N.R.; EC50 A549 (lung cancer cells (A549); 96 h exposure): N.R. |
| Cc1c(C)c(C)[c-](C)c1C.F[B-](F)(F)F.[Cl-].[Ir+3].c1ccc(Cn2cc(-c3ccccn3)nn2)nc1 [Complex C11, [Chlorido(2-((4-(pyridine-2-yl)-(3-κN)-1,2,3-trizol-1-yl)methyl)-(2′-κN)-pyridine)(η^6-pentamethylcypentadiene)iridium(III)] tetrafluoroborate] | 2.5 ± 1 µM | – | > 500 µM | 111 ± 7 µM | > 500 µM | non-toxic and completely inactive and N.R. | Conversion (%) [11]: 70 ± 5%; EC50 [5]: < 5 µM; Time with no detectable changes in the 1H NMR spectra (stability) ([4]; pH 7.4): over 72 h |
| c1ccc(Cn2cc(-c3ccccn3)nn2)cc1 [Complex L1, 2-(1-Benzyl-1H-1,2,3-triazol-4-yl)pyridine] | – | – | – | > 1300 µM | – | – | EC50 ([1]; Homo sapiens, HeLa): 168 ± 31 µM; EC50 [2, 15]: > 1300 µM; EC50 ([3]; Homo sapiens, HEK293): > 1300 µM; SI (selectivity index) [8]: ≤1; EC50 (lung cancer cells (A549); [16]): > 1300 µM |
| c1ccc(Cn2cc(-c3ccccn3)nn2)nc1 [Complex L2, 2-((4-(Pyridin-2-yl)-1H-1,2,3-triazol-1-yl)methyl)pyridine] | – | – | – | – | – | – | EC50 ([1]; Homo sapiens, HeLa): 1070 ± 134 µM; EC50 [2, 15]: > 1300 µM; EC50 ([3]; Homo sapiens, HEK293): > 1300 µM; SI (selectivity index) [8]: ≤1; EC50 MT4 (Lymphoma cells (MT4)): N.R.; EC50 (lung cancer cells (A549); [16]): > 1300 µM |
